# Measured values published in US20150004157A1, “OSTEOPONTIN ISOFORM A INHIBITORS AND METHODS OF USE” (NEW YORK UNIVERSITY, priority 2012, published 2015).
# No end group written: not given here.
# Columns and labels:
# [1] = test system: NSCLC cell surface; assay: NSCLC cell surface binding / competitive binding assay with fluorescent (FAM) labeled peptide; assay type: cell-based; conditions: for binding of fluorescently labeled peptide to the surface of the NSCLC cell lines: 100 nM FAM labeled peptide, 1 hour, FIG. 6A; for displacement of fluorescent labeled exon 4 peptide from the NSCLC cell surface by competitor: recombinant protein as competitor, 30 minutes, FIGS. 6B, 6C
# Experimental: More particularly, the peptide mimic sequence was selected that contained the PDAV region, along with a scrambled sham of the same length. Peptides were constructed and fluorescent (FAM) labeled by Think peptides (Proimmune, Sarasota, Fla.). NSCLC cell surface binding was assayed by seeding ten thousand NSCLC cells per well in a 96-well plate and allowing them to sit for overnight at 37° C. The cells were treated with 100 nM of FAM labeled Exon4 and FAM labeled scrambled peptide for 1 hour and then gently washed with 0.1% BSA in PBS for three times followed by treating with recombinant Osteopontin at 1 uM, 500 nM, 250 nM, 125 nM, 62.5 nM and 31.25 nM for 30 minutes. The cells are then washed thrice with 0.1% BSA in PBS and measured the fluorescence at […].
# [2] = test system: H358, A549 and H460 cell lines; assay: In vitro invasion assay; assay type: cell-based
# Experimental: (§1) In vitro invasion, migration, proliferation and soft agar colony formation assays were performed using the H358, A549 and H460 cell lines as previously described (Goparaju et al. “Functional Heterogeneity of Osteopontin Isoforms in Non-small Cell Lung Cancer,” J Thorac Oncol 5:1516-23 (2010), which is hereby incorporated by reference in its entirety) with 100 nM of exon 4 peptide or scrambled sham peptide in experimental medium. Experiments were performed in triplicates and comparisons of effect were made between peptide and sham within each cell line.
# [3] = test system: H358, A549 and H460 cell lines; assay: In vitro proliferation assay; assay type: cell-based
# Experimental: as §1
# [4] = test system: H358, A549 and H460 cell lines; assay: Apoptosis assay; assay type: cell-based
# [5] = test system: A549 cells; assay: Cisplatin sensitivity assay (Cell Titer Blue survival); assay type: cell-based; conditions: 100 nM peptide, cisplatin concentrations of 0.1-0.8 μM/ml, 48 h, FIG. 7E
# Experimental: The effect of exon 4 peptide on sensitivity to cisplatin was evaluated by plating 10,000 A549 cells/well in a 96-well plate in triplicates. Five hours later, the medium was changed to DMEM containing 100 nM of exon 4 peptide, 100 nM of scrambled sham peptide, or no peptide. Fifteen minutes later, the medium was changed to DMEM containing […] of cisplatin for 48 h at 37° C. The cells were then assayed for survival by adding […] of Cell Titer Blue reagent for 1 h. The fluorescence was read at 560/590λ.
# [6] = test system: EMT targets in H358, A549 and H460 cell lines; assay: Relative expression of EMT targets by quantitative RT-PCR in peptide treated cells; assay type: cell-based
# Excerpt: Here, mRNA was extracted from peptide treated cells and the relative expression of EMT targets evaluated by quantitative RT-PCR.
# [7] = test system: H358; assay: In vitro functional assays in H358 over-expressing full-length OPNa; assay type: cell-based; conditions: H358, addition of the exon 4 peptide
# Experimental: as §1
# The effects of mutated OPN and the exon 4 peptide in H358, a NSCLC cell line with low endogenous OPN expression, were insightful. This cell line has low malignant potential; however, malignant properties are increased by over-expression of full-length OPNa, but not by over-expression of OPNc or the PDAV-deleted mutant. Further, the tumorigenic effects of full-length OPNa over-expression are abolished by addition of the exon 4 peptide in this cell line.
# [8] = biological target: membrane-associated protein complex on NSCLC cells (un-described cell surface receptor for OPN exon 4; H358, A549 and H460 cell surface); assay: cell-based or functional assay
# [9] = H358 cells with low endogenous OPN expression
molecule,measurement,setting,value
KYPDAVATWLNPDPSQK (also: FAM label) [exon 4 peptide],binding of fluorescently labeled peptide to the surface of the NSCLC cell lines,[1],specifically binds
same,invasive capacity,[2]; FIG. 7D,decrease
same,invasion,[2]; [9],less impact
same,invasion,"[2]; cells with high endogenous OPN expression (A549 and H460), 100 nM peptide in media, FIGS. 7B and 7D",decreased
same,impact of exogenous rOPNa on invasion,"[2]; exon 4 peptide added to exogenous rOPNa, FIG. 7D",blocks
same,proliferation,[3]; [9],less impact
same,proliferation,"[3]; cells with high endogenous OPN expression (A549 and H460), 100 nM peptide in media, FIG. 7A",decreased
same,apoptosis,[4]; [9],less impact
same,apoptosis,"[4]; cells with high endogenous OPN expression (A549 and H460), peptide in media, FIG. 7C",increased
same,decrease in cell viability compared to untreated or scrambled peptide (cisplatin sensitivity),[5],2 fold
same,relative expression of TFGb1-r,"[6]; A549 and H460 cell lines, FIG. 9A",significant decrease
same,relative expression of N-cadherin,"[6]; A549 and H460 cell lines, FIG. 9B",significant decrease
same,relative expression of desmoplakin,"[6]; A549 and H460 cell lines, FIG. 9C",significant increase
same,relative expression of cytokeratin-20,"[6]; A549 and H460 cell lines, FIG. 9D",significant increase
same,"relative expression of the same EMT markers (TFGb1-r, N-cadherin, desmoplakin, cytokeratin-20)",[6]; H358 cell line with low endogenous OPN,lesser impact
same,tumorigenic effects of full-length OPNa over-expression,[7],abolished
"WQKPAPLDTDPKVYANS (Scrambled Sham Peptide) [scrambled sham control of the same length as the peptide mimic, reference compound]",binding of fluorescently labeled peptide to the surface of the NSCLC cell lines,[1],does not
"rOPNa: recombinant full-length OPN (rOPNa, R&D, Minneapolis, Minn.)",displacement of fluorescent labeled exon 4 peptide from the NSCLC cell surface by competitor,[1],displaced by molar equivalents
same,displacement of fluorescent labeled exon 4 peptide from the NSCLC cell surface by competitor,[1]; listed as recombinant OPN,able to compete the peptide off the cell surface
"KYPDAVATWLNPDPSQK (also: FAM label, position not given here)","fold decrease in cell viability under cisplatin (cisplatin sensitivity, A549)",[8],2 fold
